Where two headings read alike, the source gives them in different places.
Legend:
[1] = tested on: Salmonella typhimirium TA 97a, TA 98, TA 100, TA 102 and TA 1535; test: Bacterial reverse mutation (Ames) test
[2] = tested on: mouse bone marrow polychromatic erythrocytes; test: Micronucleus test in mouse bone marrow; assay type: in vivo; details: mice; 25 mg/Kg i.p.
Procedure: The ratio of polychromatic to normochromatic erythrocytes and the count of micronuclei were determined. This assay was conducted in compliance with the GLP principles.

[3] = tested on: SARS-COV-2; test: Combination with SARS-COV-2 nsp14 (exonuclease) inhibitors in Calu-3 cells, infectious virus titers; assay type: cell-based; details: for EC50 / EC90 / EC99 mean: Calu-3, alone or in combination as labelled; for effect on SARS-COV-2 replication / effect of co-treatment with raltegravir or dolutegravir (iEXO) on inhibition of SARS-COV-2: calu-3; for effect on SARS-COV-2 replication: 5 μM; for effect of co-treatment with raltegravir or dolutegravir (iEXO) on inhibition of SARS-COV-2: drug 10 μM, raltegravir or dolutegravir 5 μM
[4] = tested on: SARS-COV-2; test: SARS-COV-2 viral RNA synthesis in Calu-3 cells (real time RT-PCR); assay type: cell-based; details: 1.0 μM
[5] = Cytotoxicity assay (XTT) in Calu-3 cells; assay type: cell-based, human; details: human
Procedure: (§1) In parallel, cytotoxicity assays were performed.

[6] = tested on: SARS-COV-2; details: for SI: CC50/EC50
[7] = tested on: SARS-COV-2; test: SARS-COV-2 viral RNA synthesis in Vero cells (real time RT-PCR); assay type: cell-based
[8] = tested on: SARS-COV-2; test: SARS-COV-2 viral RNA synthesis in HuH-7 cells (real time RT-PCR); assay type: cell-based; details: for SI: Huh-7, CC50/EC50
[9] = Cytotoxicity assay (XTT) in Huh-7 cells; assay type: cell-based; details: human
Procedure: In parallel, cytotoxicity assays were performed. Monolayers of 1.5×10^4 cells in 96-well plates were treated for 3 days with various concentrations (semi-log dilutions from 1,000 to 10 μM) of the antiviral drugs. Then, 5 mg/mL 2,3-bis-(2-methoxy-4-nitro-5-sulfophenyl)-2H-tetrazolium-5-carboxanilide (XTT) in DMEM was added to the cells in the presence of 0.01% of N-methyl dibenzopyrazine methyl sulfate (PMS).

[10] = tested on: Calu-3 cells; test: Cytotoxicity assay (XTT) in Calu-3 cells; assay type: cell-based, human
Procedure: as §1

[11] = tested on: SARS-COV-2; test: SARS-COV-2 RNA loads in human primary monocytes; assay type: cell-based; details: 24 h
Procedure: (§2) FIG. 5A, 5B and 5C. The compounds impair SARS-COV-2 RNA synthesis and SARS-COV-2-induced release of inflammatory mediators in human primary monocytes.
(§3) Human primary monocytes were obtained after 3 h of plastic adherence of peripheral blood mononuclear cells (PBMCs). PBMCs were isolated from healthy donors by density gradient centrifugation (Ficoll-Paque, GE Healthcare). PBMCs (2.0×10^6 cells) were plated onto 48-well plates (NalgeNunc) in RPMI-1640 without serum for 2 to 4 h. Non-adherent cells were removed, and the remaining monocytes were maintained in DMEM with 5% human serum (HS; Millipore) and penicillin/streptomycin. Monocytes were infected at MOI of 0.1. After 1 h inoculation period, cells were washed with phosphate saline buffer (PBS) to remove unbounded viruses and treated with 1 μM of the indicated compounds. After 24 h after infection, cell monolayers werc lysed total viral RNA was extracted, quantitative RT-PCR was performed, to detect the SARS-COV-2 and the housekeeping gene RNAse P.

[12] = tested on: TNF-α and IL-6; test: TNF-α and IL-6 levels in supernatant of SARS-COV-2-infected human primary monocytes; assay type: cell-based; details: 24 h
Procedure: as §2, §3

[13] = Cytotoxicity assay (XTT) in Vero cells; assay type: cell-based; details: African green monkey
Procedure: as §1

[14] = Severe acute respiratory syndrome coronavirus 2
[15] = Calu-3, single moment treatment
[16] = Table 6, Calu-3, daily treatment
[17] = Table 6, Calu-3, single treatment
[18] = Severe acute respiratory syndrome coronavirus 2, Calu-3, 72 h, Calu-3 (MOI 0.5 72 h), daily treatment
[19] = Severe acute respiratory syndrome coronavirus 2, Calu-3, 72 h, Calu-3 (MOI 0.5 72 h), single moment treatment
[20] = Severe acute respiratory syndrome coronavirus 2, Calu-3, Table 6, Calu-3, daily treatment
[21] = Severe acute respiratory syndrome coronavirus 2, Calu-3, Table 6, Calu-3, single treatment
[22] = Severe acute respiratory syndrome coronavirus 2, Vero (MOI 0.01 24 h), read-out: EC50
[23] = Severe acute respiratory syndrome coronavirus 2, Huh-7 (MOI 0.1 48 h), read-out: EC50

SMILES: Nc1ccc2cc3ccccc3cc2c1 [2-aminoanthracene, reference compound]
- Mutagenicity ([1]; TA 102 +S9, positive control 5 μg/plate): +
- Mutagenicity ([1]; TA 1535 +S9, positive control 2.5 μg/plate): +

SMILES: O=P1(N(CCCl)CCCl)NCCCO1 (centres unmarked) [Cyclophosphamide, reference compound]
- MNPCE/4,000 PCE (Mean ± S.D.) [2]: 16.20 ± 6.03

SMILES: C[C@@H]1CCO[C@H]2Cn3cc(C(=O)NCc4ccc(F)cc4F)c(=O)c(O)c3C(=O)N12 [DTG, dolutegravir]
- EC50 [3, 14]: 5.3 µM
- effect on SARS-COV-2 replication [3]: marginal effects

SMILES: COC(=O)N[C@H](C(=O)N1CCC[C@H]1c1nc(-c2ccc(-c3ccc(-c4c[nH]c([C@@H]5CCCN5C(=O)[C@@H](NC(=O)OC)C(C)C)n4)cc3)cc2)c[nH]1)C(C)C [Daclatasvir]
- EC50 [3, 14]: 0.7 µM
- EC90 [3, 14]: 3.8 µM

SMILES: NC(=O)c1nc(F)c[nH]c1=O [Favipiravir]
- EC50 [3, 14]: 7.8 µM

SMILES: CC(C)OC(=O)[C@H](C)NP(=O)(OC[C@H]1O[C@@H](n2cnc3c(NCc4ccco4)ncnc32)[C@H](O)[C@@H]1O)Oc1ccccc1 (some centres unmarked) [MB-711, kinetin riboside monophosphoramidate]
- inhibition of SARS-COV-2 RNA synthesis [4]: best profiles
- CC50 at 3 days ([5]; Calu-3, daily treatment): 580 µM
- CC50 at 3 days [5, 15]: 562 µM
- CC50 at 3 days [5, 16]: 580 µM
- CC50 at 3 days [5, 17]: 562 µM
- effect of co-treatment with raltegravir or dolutegravir (iEXO) on inhibition of SARS-COV-2 [3]: synergistic
- SI ([6]; Calu-3, daily treatment): 58000 µM
- SI [6, 15]: 510
- EC50 [6, 18]: 0.01 µM
- EC90 [6, 18]: 3.8 µM
- EC50 [6, 19]: 1.1 µM
- EC90 [6, 19]: 9.2 µM
- EC50 [6, 20]: 0.01 µM
- EC90 [6, 20]: 3.8 µM
- EC50 [6, 21]: 1.1 µM
- EC90 [6, 21]: 9.2 µM
- SI [6, 16]: 58,000
- SI [6, 17]: 510

SMILES: OC[C@H]1O[C@@H](n2cnc3c(NCc4ccco4)ncnc32)[C@H](O)[C@@H]1O [MB-801, kinetin riboside]
- EC50 [7, 22]: 8 µM
- SI [8]: 2290
- EC50 [8, 23]: 0.1 µM
- inhibition of SARS-COV-2 RNA synthesis [4]: best profiles
- CC50 at 3 days [9]: 229 µM
- CC50 at 3 days [5, 16]: 530 µM
- CC50 at 3 days [5, 17]: 550 µM
- CC50 ([10]; Calu-3, daily treatment): 530 µM
- CC50 [10, 15]: 550 µM
- viral RNA levels/cell [11]: reduced
- SARS-CoV-2-induced enhancement of IL-6 levels in culture supernatant [12]: reduced
- SARS-CoV-2-induced enhancement of TNF-α levels in culture supernatant [12]: reduced
- effect of co-treatment with raltegravir or dolutegravir (iEXO) on inhibition of SARS-COV-2 [3]: synergistic
- SI ([6]; Calu-3, daily treatment): 26500 µM
- SI [6, 15]: 3055
- EC50 [6, 18]: 0.02 µM
- EC90 [6, 18]: 3.7 µM
- EC50 [6, 19]: 0.18 µM
- EC90 [6, 19]: 7.2 µM
- EC50 [6, 20]: 0.02 µM
- EC90 [6, 20]: 3.7 µM
- EC50 [6, 21]: 0.18 µM
- EC90 [6, 21]: 7.2 µM
- SI [6, 16]: 26,500
- SI [6, 17]: 3.055

SMILES: c1coc(CNc2ncnc3c2ncn3C2CCCCO2)c1 (centres unmarked) [MB-906]
- anti-coronavirus activity (SARS-COV-2 replication) [8]: not endowed with anti-coronavirus activity
- anti-coronavirus activity (SARS-COV-2 replication) [6]: not endowed with anti-coronavirus activity

SMILES: C/C(=C\CNc1ncnc2[nH]cnc12)CO [MB-907, zeatin]
- EC50 ([7]; Severe acute respiratory syndrome coronavirus 2, Vero, 24 h): 6 µM
- EC50 ([8]; Severe acute respiratory syndrome coronavirus 2, Huh-7, 48 h): 0.05 µM
- CC50 at 3 days [9]: 600 µM

SMILES: CC(C)C(=O)OC[C@H]1O[C@@H](n2ccc(NO)nc2=O)[C@H](O)[C@@H]1O [MK-4482, N-4-hydroxycytidine-5′-isopropyl ester, reference compound]
- CC50 at 3 days [5, 16]: 58 µM
- CC50 at 3 days [5, 17]: 58 µM
- CC50 ([10]; Calu-3, daily treatment): 58 µM
- EC99 mean [3]: 9 µM
- EC50 [3, 14]: 0.8 µM
- EC90 [3, 14]: 7 µM
- efficiency impaired due to daily treatment ([6]; Calu-3): 2 times
- SI ([6]; Calu-3, daily treatment): 2900 µM
- EC50 [6, 18]: 0.02 µM
- EC90 [6, 18]: 8.6 µM
- EC50 [6, 20]: 0.02 µM
- EC90 [6, 20]: 8.6 µM
- EC50 [6, 21]: 0.72 µM
- EC90 [6, 21]: 3.4 µM
- SI [6, 16]: 2,900
- SI [6, 17]: 80

SMILES: COC(=O)N[C@H](C(=O)N1CCC[C@H]1C(=O)Nc1ccc([C@@H]2CC[C@@H](c3ccc(NC(=O)[C@@H]4CCCN4C(=O)[C@@H](NC(=O)OC)C(C)C)cc3)N2c2ccc(C(C)(C)C)cc2)cc1)C(C)C [Ombitasvir]
- EC99 mean [3]: 18 µM
- EC50 [3, 14]: 0.4 µM
- EC90 [3, 14]: 3.3 µM

SMILES: COC(=O)N[C@H](C(=O)N1CCC[C@H]1c1nc2cc([C@H]3CC[C@H](c4cc5nc([C@@H]6CCCN6C(=O)[C@@H](NC(=O)OC)[C@@H](C)OC)[nH]c5cc4F)N3c3cc(F)c(N4CCC(c5ccc(F)cc5)CC4)c(F)c3)c(F)cc2[nH]1)[C@@H](C)OC [Pibrentasvir]
- EC99 mean [3]: 19 µM
- EC50 [3, 14]: 0.7 µM
- EC90 [3, 14]: 4.2 µM

SMILES: Cc1nnc(C(=O)NC(C)(C)c2nc(C(=O)NCc3ccc(F)cc3)c(O)c(=O)n2C)o1 [RTG, raltegravir]
- EC50 [3, 14]: 4.8 µM
- effect on SARS-COV-2 replication [3]: marginal effects

SMILES: CCC(CC)COC(=O)[C@H](C)N[P@](=O)(OC[C@H]1O[C@@](C#N)(c2ccc3c(N)ncnn23)[C@H](O)[C@@H]1O)Oc1ccccc1 [Remdesivir, reference compound]
- EC50 [7, 22]: 0.7 µM
- SI ([7]; Vero, CC50/EC50): 757
- SI [8]: 46666
- EC50 [8, 23]: 0.006 µM
- CC50 at 3 days [13]: 530 µM
- CC50 at 3 days [9]: 280 µM
- CC50 at 3 days [5, 16]: 330 µM
- CC50 at 3 days [5, 17]: 350 µM
- EC99 mean [3]: 1.1 µM
- EC50 [3, 14]: 0.09 µM
- EC90 [3, 14]: 0.4 µM
- SI [6, 15]: 2300
- EC50 [6, 18]: 0.01 µM
- EC90 [6, 18]: 0.2 µM
- EC50 [6, 19]: 0.15 µM
- EC90 [6, 19]: 0.4 µM
- EC50 [6, 20]: 0.01 µM
- EC90 [6, 20]: 0.2 µM
- EC50 [6, 21]: 0.15 µM
- EC90 [6, 21]: 0.4 µM
- SI [6, 16]: 3,3000
- SI [6, 17]: 2.300

SMILES: C[C@H](Cn1cnc2c(N)ncnc21)OCP(=O)(O)O [Tenofovir]
- EC50 [3]: 4.3 µM
- effect of co-treatment with raltegravir or dolutegravir (iEXO) on inhibition of SARS-COV-2 [3]: enhanced efficiency

SMILES: [N-]=[N+]=[N-] [sodium azide, reference compound]
- Mutagenicity ([1]; TA 100 −S9, positive control 1.5 μg/plate): +
- Mutagenicity ([1]; TA 1535 −S9, positive control 1.5 μg/plate): +

SMILES: CC(C)OC(=O)[C@H](C)N[P@](=O)(OC[C@H]1O[C@@H](n2ccc(=O)[nH]c2=O)[C@](C)(F)[C@@H]1O)Oc1ccccc1 [sofosbuvir]
- effect of co-treatment with raltegravir or dolutegravir (iEXO) on inhibition of SARS-COV-2 [3]: enhanced efficiency

Source: patent US20240207302A1, “ANTIVIRAL COMPOUNDS, METHODS FOR THE MANUFACTURING OF COMPOUNDS, ANTIVIRAL PHARMACEUTICAL COMPOSITION, USE OF THE COMPOUNDS AND METHOD FOR THE ORAL TREATMENT OF CORONAVIRUS INFECTION AND RELATED DISEASES THEREOF” (priority 2021, published 2024)
